Article PMC11636765, “Importance of Considering Fed-State Gastrointestinal Physiology in Predicting the Reabsorption of Enterohepatic Circulation of Drugs” (Pharmaceutical Research, 2024)
In brackets after ≈: the same amount, converted by molar mass. Where two headings read alike, the source gives them in different places.

Experiments:
[1] = cited from earlier work
[2] = cited from earlier work; remark: listed apart in the source
[3] = In vitro dissolution test of tablets in biorelevant media (USP apparatus II paddle); format: physicochemical; conditions: for Dissolution in FaSSIF-V2: tablet, 500 mL, paddle 50 rpm, up to 60 min
Protocol: (§1) Fasted State Simulated Gastric Fluid (FaSSGF) and Fasted State Simulated Intestinal Fluid version 2 (FaSSIF-V2) were used for dissolution tests and solubility tests. Fed State Simulated Intestinal Fluid version 2 (FeSSIF-V2) was used for solubility tests. These media contain sodium taurocholate as the bile acid. Their composition and preparation method have been previously reported and were prepared accordingly, except that FaSSGF was used without pepsin.
For in vitro dissolution tests, a USP apparatus II paddle dissolution tester (NTR-6400AC, Toyama Sangyo Co., Ltd., Osaka, Japan) was used. The media volume of FaSSGF and FaSSIF-V2 was 300 mL and 500 mL, respectively, and temperature in the dissolution vessel was maintained at 37℃ ± 0.5℃. […] Paddle rotation speed during the dissolution test was maintained at 50 rpm for up to 60 min. The samples were filtered through PVDF 0.45 µm filters (Whatman, GD/X, 13 mm, Cytiva, Chicago, IL, USA) immediately after withdrawal, and filtrates were recovered after the first 2 mL was discarded. […] All dissolution tests were conducted in triplicate.
When the tablets […] during the infinity spin in the dissolution test, separate solubility measurements were performed, as described in the next paragraph.
TSKgel ODS-100Z 5 µm (4.6 mm × 15 cm, Tosoh Corporation, Tokyo, Japan) was used as analytical column for both drugs. Column temperature during analysis was set to 40℃. A mixture of perchlorate (Na) buffer pH 2.5 and acetonitrile (50:50, v/v) was used as mobile phase. […] Flow rate and injection volume were 1.2 mL/min and 10 μL, respectively. […]

[4] = Solubility test of drug substances in biorelevant media and free fraction calculation; format: physicochemical; conditions: for Free fraction: fraction of drug not entrapped in micelles in FeSSIF-V2, Eq. (8), from FaSSIF-V2/FeSSIF-V2 solubility; for Solubilization by bile micelles: in vitro solubility in biorelevant media
Protocol: as §1
The excess amount of ezetimibe powder was added to 10 mL FaSSIF-V2 and FeSSIF-V2. Test tubes containing the drug substances in the biorelevant media were vigorously shaken at 37℃ ± 0.5℃ for 5 h. An approximately 5 mL sample was withdrawn using a plastic syringe, then filtered through a PVDF 0.45 µm filter. The filtrates (after discarding the first ca. 2 mL) were diluted with 50:50 v/v acetonitrile for analysis to prevent precipitation, except for that of ezetimibe tested in FeSSIF-V2. All solubility tests were conducted in triplicate.
TSKgel ODS-100Z 5 µm (4.6 mm × 15 cm, Tosoh Corporation, Tokyo, Japan) was used as analytical column for both drugs. Column temperature during analysis was set to 40℃. A mixture of perchlorate (Na) buffer pH 2.5 and acetonitrile (50:50, v/v) was used as mobile phase. […] Flow rate and injection volume were 1.2 mL/min and 10 μL, respectively.
Sodium taurocholate and lecithin concentration in FaSSIF-V2 are 3 mM and 0.2 mM, respectively, and those in FeSSIF-V2 are 10 mM and 2 mM, respectively. […] The formulation was considered able to exist in the small intestine for 4 h after administration. Initial intestinal fluid volume in both prandial states was set to 100 mL [31].

[5] = cited from earlier work; remark: listed apart in the source
[6] = Estimation of effective permeability (Peff) in the human small intestine from Caco-2 Papp
Text: The Papp for each compound was cited from previous reports [39, 40] or calculated using an equation [41] based on the reported partition coefficient [25, 42].

[7] = design: method as in earlier work; conditions: cited from earlier work
[8] = FaSSIF-V2, drug substance powder, 37℃, shaken 5 h, pH 6.5, read-out: Solubility in FaSSIF-V2
[9] = FeSSIF-V2, 37 °C, fessif, thermodynamic from solid, drug substance powder, 37℃, shaken 5 h, pH 5.8, read-out: Solubility in FeSSIF-V2

Row | SMILES | Plasma concentration of glucuronide relative to parent drug in terms of AUC ([1]; humans, Zetia tablet) | Log P ([2]; calculated value based on apparent partition coefficient Log Papp) | Dissolution in FaSSIF-V2 [3] | solubility at 5 h [4, 8] | solubility at 5 h [4, 9] | solubility at 5 h ([4]; blank FaSSIF-V2 (without surfactant), drug substance, medium without surfactant, read-out: Solubility in blank FaSSIF-V2) | solubility at 5 h ([4]; blank FeSSIF-V2 (without surfactant), drug substance, medium without surfactant, read-out: Solubility in blank FeSSIF-V2) | Free fraction [4] | Free fraction ([4]; listed as meloxicam) | Solubilization by bile micelles [4] | pKa [5] | Log P [2] | solubility at 120 min ([3]; FaSSIF-V2, for PK simulation, Zetia: infinity point of tablet dissolution test, Mobic: adopted from drug substance solubility test) | Papp [6] | Solubility in the aqueous phase [7] | Effect of concomitant food on extent of absorption [1]
1 | O=C(O)[C@H]1O[C@@H](Oc2ccc([C@@H]3[C@@H](CC[C@H](O)c4ccc(F)cc4)C(=O)N3c3ccc(F)cc3)cc2)[C@H](O)[C@@H](O)[C@@H]1O [glucuronide] | about seven-fold |  |  |  |  |  |  |  |  |  |  |  |  |  |  | 
2 | Cc1cnc(NC(=O)C2=C(O)c3ccccc3S(=O)(=O)N2C)s1 [Meloxicam, meloxicam] |  | 3.32 | about 80% | 172 ± 12.3 µg/mL (≈ 489 µM) | 42.7 ± 1.53 µg/mL (≈ 122 µM) | 164 µg/mL (≈ 467 µM) | 32.5 µg/mL (≈ 92.5 µM) | Regard as 1 | 1 | insignificant |  |  |  |  |  | 
3 | O=C1[C@H](CC[C@H](O)c2ccc(F)cc2)[C@@H](c2ccc(O)cc2)N1c1ccc(F)cc1 [Ezetimibe, ezetimibe] |  |  | around 20% | 3.79 ± 0.133 µg/mL (≈ 9.26 µM) | 22.3 ± 0.203 µg/mL (≈ 54.5 µM) |  |  | 0.169 |  | clearly shown to be solubilized by the mixed micelles | 9.7 | 4.5 | 4.93 µg/mL (≈ 12 µM) | 121 ×10⁻⁶ cm/s | virtually insoluble | not affected
